Measured values as given in article PMC4962987, “Identification of Chalcones as Fasciola hepatica Cathepsin L Inhibitors Using a Comprehensive Experimental and Computational Approach” (PLoS Neglected Tropical Diseases, 2016).

What was measured:
FhCL1 [1] = target: T1, FhCL1 (Fasciola hepatica, UniProt Q7JNQ9); assay: fluorogenic Z-VLK-AMC enzyme assay, % inhibition at […]; assay type: biochemical
T1 construct: gene CL1

FhCL1 [2] = target: T2, FhCL1 (Fasciola hepatica, UniProt Q7JNQ9); assay: biochemical; design: fluorogenic peptide-AMC hydrolysis (Z-VLK-AMC FhCL1, Tos-GPR-AMC FhCL3), initial rates, 5 min preincubation
T2 construct: gene CL1
T2 sequence (Q7JNQ9 108-326): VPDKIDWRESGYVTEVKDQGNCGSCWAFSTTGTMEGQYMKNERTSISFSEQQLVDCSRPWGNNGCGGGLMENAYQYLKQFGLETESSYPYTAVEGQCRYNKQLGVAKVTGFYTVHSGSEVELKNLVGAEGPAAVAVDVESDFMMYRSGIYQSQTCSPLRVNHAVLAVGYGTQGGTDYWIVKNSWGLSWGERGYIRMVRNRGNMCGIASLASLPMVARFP
Procedure: (§1) A 10 mM stock of each evaluated compound was prepared in dimethylsulfoxide (DMSO). Enzyme activity assays were conducted to evaluate the inhibitory capacity of the different compounds. FhCL1 and FhCL3 were used at nanomolar concentrations to measure initial rates during the first 10 min of the assay and compounds were tested at a moderate fixed dose of 10 μM. Briefly, each enzyme and compound were preincubated 5 minutes in a 96-well plate in 0.1M sodium phosphate buffer pH 6, 1 mM DTT and 1 mM EDTA at room temperature. The reaction was initiated by the addition of 20 μM of substrate, a synthetic peptide conjugated to the fluorophore 7-amino-4-methylcoumarin (AMC). Enzyme activity was measured by the increase in AMC fluorescence as peptide substrates were hydrolyzed (Z-VLK-AMC for FhCL1 and Tos-GPR-AMC for FhCL3) at an excitation wavelength of 340 nm and emission wavelength of 440 nm using a spectrofluorometer (Varioskan Thermo). Enzyme activity was expressed as RFU/s (relative fluorescence units of AMC released per unit of time). Each compound was tested in duplicate. A progress curve without enzyme was performed to control for non-catalyzed reactions between substrates and inhibitors and a spectrum from 300 to 450 nm wavelength was done for each inhibitor to verify that none of the compounds has optical activity in the measurement range. The percentage of enzyme inhibition was calculated as: 100 - (vi/vo) x 100, where vi and vo correspond to the initial rate of AMC fluorescence increase (RFU/s) with and without inhibitor, respectively. We evaluated forty flavonoids from three structural clusters of our own chemistry library as inhibitors of FhCL1 and FhCL3. Cluster I contained twenty-six chalcones modified in ring B (C1-C26, Fig 1A), cluster II contained naphtolchalcone derivatives (C27-C35, Fig 1B) and cluster III was composed of flavones modified in ring B (C36-C40, Fig 1B). Initially, we screened the compounds at a low concentration of 10 μM measuring initial rates during the first 10 min, finding activities ranging from 0% to 75% enzyme inhibition (Fig 1).

FhCL3 [3] = target: T3, FhCL3 (Fasciola hepatica, UniProt B3TM67); assay: biochemical; design: fluorogenic peptide-AMC hydrolysis (Z-VLK-AMC FhCL1, Tos-GPR-AMC FhCL3), initial rates, 5 min preincubation; settings: read-out: % inh. FhCL3
T3 construct: gene CL3
T3 sequence (B3TM67 88-306): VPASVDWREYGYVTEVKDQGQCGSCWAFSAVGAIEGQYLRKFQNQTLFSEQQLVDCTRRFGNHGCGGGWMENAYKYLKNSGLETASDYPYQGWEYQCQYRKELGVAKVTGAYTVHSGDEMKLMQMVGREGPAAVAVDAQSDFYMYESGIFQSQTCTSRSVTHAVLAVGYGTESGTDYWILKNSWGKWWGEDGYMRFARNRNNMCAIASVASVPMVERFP
Procedure: as §1

FhCL3 [4] = target: T4, FhCL3 (Fasciola hepatica, UniProt B3TM67); assay: biochemical; design: fluorogenic peptide-AMC hydrolysis (Z-VLK-AMC FhCL1, Tos-GPR-AMC FhCL3), initial rates, 5 min preincubation; settings: read-out: % inh. FhCL3; remark: listed apart in the source
T4 construct: gene CL3
Procedure: as §1

FhCL1 [5] = target: T1, FhCL1; assay: biochemical; design: fluorogenic peptide-AMC hydrolysis (Z-VLK-AMC FhCL1, Tos-GPR-AMC FhCL3), initial rates, 5 min preincubation; remark: listed apart in the source
Procedure: as §1

FhCL3 [6] = target: T4, FhCL3; assay: fluorogenic Tos-GPR-AMC enzyme assay, % inhibition at […]; assay type: biochemical

| inhibition at 10 µM (FhCL1 [2]) [%] | inhibition at 10 µM (FhCL3 [3]) [%] | Structure (SMILES) | further results |
| --- | --- | --- | --- |
| 38 ± 3 | 39 ± 5 | O=C(/C=C/c1cccc2ccccc12)c1ccccc1 [C28] | – |
| 17 ± 9 | 27 ± 2 | O=C(CC(CC(=O)c1ccccc1)c1cccc2ccccc12)c1ccccc1 [C29] | – |
| 62 ± 2 | 38 ± 7 | O=C(/C=C/c1ccc2ccccc2c1)c1ccccc1 [C30] | – |
| 61 ± 2 | 41 ± 5 | O=C(/C=C/c1ccc2ccccc2c1)c1ccccc1O [C31] | – |
| 42 ± 6 | 32 ± 8 | O=C(/C=C/c1cccc2ccccc12)c1ccccc1O [C32] | – |
| 65 ± 6 | 29 ± 5 | O=C(/C=C/c1ccc2ccccc2c1)c1ccc2ccccc2c1O [C33] | – |
| 5 ± 1 | 8 ± 4 | O=c1cc(-c2ccccc2)oc2ccccc12 [C36] | – |

Second part, the compound before the results:

| Structure (SMILES) | inhibition at 10 µM (FhCL1 [2]) [%] | inhibition at 10 µM (FhCL3 [3]) [%] | further results |
| --- | --- | --- | --- |
| O=C(/C=C/c1ccc(Cl)cc1)c1ccccc1O [C10] | – | – | inhibition at 10 µM (FhCL1 [1]): 63% |
| O=C(/C=C/c1ccccn1)c1ccccc1O [C22] | 54 ± 7 | 0 | – |
| O=C(/C=C/c1ccco1)c1ccccc1O [C23] | 57 ± 8 | 4 ± 10 | – |
| O=C(/C=C/c1cccs1)c1ccccc1O [C24] | 52 ± 5 | 9 ± 11 | – |
| O=C(/C=C/c1ccccc1)c1ccc2ccccc2c1 [C27] | – | 13 ± 4 | inhibition at 10 µM (FhCL1 [1]): 65% |
| O=C(/C=C/c1cccc2ccccc12)c1c(O)ccc2ccccc12 [C34] | – | – | inhibition at 10 µM (FhCL3 [4]): 65 ± 6%; inhibition at 10 µM (FhCL1 [5]): 75 ± 4% |
| O=C(/C=C/c1ccc2ccccc2c1)c1c(O)ccc2ccccc12 [C35] | 67 ± 3 | 44 ± 6 | inhibition at 10 µM (FhCL1 [1]): > 50%; inhibition at 10 µM (FhCL3 [6]): > 50% |
| O=c1cc(-c2ccc(Cl)cc2)oc2ccccc12 [C37] | 0 | 17 ± 1 | – |
| O=c1cc(-c2ccc(Br)cc2)oc2ccccc12 [C38] | 21 ± 10 | 19 ± 3 | – |
| COc1ccc(-c2cc(=O)c3ccccc3o2)cc1 [C39] | 20 ± 7 | 0 | – |
| O=c1c(O)c(-c2ccc(O)c(O)c2)oc2cc(O)cc(O)c12 [C40, Quercetin] | – | – | inhibition at 10 µM (FhCL3 [4]): 8 ± 1%; inhibition at 10 µM (FhCL1 [5]): 15 ± 8% |
